Tests used:
[1] = tested on: panel of human tumor cell lines as well as normal endothelial cells; assay: Growth inhibition (IC50) of human tumor cell lines and normal endothelial cells; assay type: cell-based; settings: newly synthesized compounds compared with compounds synthesized by the original method
Text: Before conducting experiments with newly synthesized 3- and 4-F-GlcNAc the effects of 3- and 4-F-GlcNAc on the growth of a panel of human tumor cell lines as well as normal endothelial cells (i.e. IC50 values) were first determined and compared with the original growth inhibitory action (9 Bernacki, R. J. et al. (1977) J. Supra. Stru., 7:235–250; 10 Sharma, M. and W. Korytnyk (1980) Carbohyd. Res., 79:39–51;11 Sharma, M. et al. (1990). Carbohyd. Res., 198:205–22).

[2] = tested on: human ovarian, A121, tumor cells; settings: cited from earlier work
[3] = previous studies; cited from earlier work
[4] = tested on: E-selectin ligand activity of CLA+ T-lymphocytes; assay: Parallel-plate flow chamber, CLA+ T-cell tethering and rolling on E-selectin chimera; assay type: cell-based, human
Description: (§1) To analyze the affects of 4-F-GlcNAc on the function of CLA on human T-cells, we examined the ability of 4-F-GlcNAc-treated (0.05, 0.1, 0.5 mM for 30 hrs) CLA-+ T-cells cultures to engage with immobilized E- and P-selectin chimera in the parallel-plate flow chamber. As described for flow cytometric analyses (Example 13), cells were first pretreated with neuraminidase to remove terminal sialic acid residues required for HECA-452 reactivity and for E- and P-selectin ligand activity of CLA. This approach allowed for the assessment on de novo synthesized CLA molecules.
(§2) Tethering and rolling of human T-cells on recombinant human E- and P-selectin-Ig chimera (provided by Dr. Robert Fuhlbrigge, Harvard Medical School) and human L-selectin-Ig (gift from Dr. Ray Camphausen, Wyeth/Genetics Institute, Inc., Cambridge, Mass.) were analyzed in the parallel-plate flow chamber under physiologic shear stress conditions (3). To prepare E- and P-selectin-Ig chimera spots, protein A (300 μg/15 μl 0.1M NaHCO3) was adsorbed to Ten-twenty-nine™ Petri dishes for 2 h at 37° C. Human serum albumin ([…] PBS) then added and incubated for 2 h at 37° C. to block non-specific binding sites. E-selectin-Ig (50 ng/50 μl PBS) or P-selectin-Ig (50 ng/50 μl PBS) solutions was pipetted directly over the pre-existing protein A spots for 18 h at 4° C. To prepare L-selectin-Ig spots, L-selectin-Ig (300 ng/15 μl PBS) or isotype control human IgG (300 ng/15 μl) were adsorbed directly to plastic (non-protein A-coated) for 18 h at 4° C. and blocked in 100% FBS for 2 h at 4° C.
(§3) CLA^+ T-cells or freshly isolated PBL were treated with neuraminidase and metabolic glycosylation inhibitors or with protease (bromelain) as described above, washed twice in HBSS, suspended at 2×10^6/ml in HBSS/10 mM HEPES/2 mM CaCl2 (H/H/Ca^++) and infused into the chamber over selectin chimeras. Protease treatment was performed to control for residual E-selectin activity not attributable to the expression of CLA on a protein scaffold. Cell tethering was permitted at 0.6 dynes/cm^2 for 1 min, then stepwise increments in shear stress every 15 sec were employed to a final shear stress level of 60 dynes/cm^2. The number of cells rolling/viewing field (at 100× magnification) was quantified at each level of shear stress in triplicates for a minimum of three experiments. […] Negative control experiments were performed in parallel, wherein cell binding was examined in H/H adhesion assay medium containing 5 mM EDTA as well as assaying cell binding to human IgG isotype control.
(§4) Utilizing the parallel-plate flow chamber under physiologic shear stress conditions, E-, P- and L-selectin ligand activities of human CLA^+ T-cells treated were analyzed in an identical manner as cells prepared for Western blotting and autoradiography studies.

[5] = tested on: (Galβ1,4GlcNAc)n (LEA staining); assay: Lectin blot with LEA of CLA+ T-cell lysates; assay type: cell-based, human; settings: compared with PBS or GlcNAc treatments
Description: (§5) For lectin blotting, cell lysates (25 μg/spot) were spotted onto methanol-permeabilized PVDF membrane and blocked in FBS for 1 h at RT. Blots were then probed with AP-Canavalia ensiformis agglutinin (ConA) (2.0 μg/ml PBS; specificity: α-mannose), AP-Triticum vulgaris (Wheat germ) agglutinin (WGA) (0.5 μg/ml PBS; specificity: terminal GlcNAc or GlcNAcβ1,4GlcNAc) or AP-Lycopersicon esculentum (tomato lectin) agglutinin (LEA) (1.0 μg/ml PBS; specificity: (Galβ1,4GlcNAc)n) for 1 h at RT (All lectins from EY Labs., Inc., San Mateo, Calif.). After washing 3× in PBS/0.1% Tween-20 and 1× in PBS (10 min each), blots were developed with Western Blue®.
(§6) To analyze and identify the glycan modifications on CLA^+ T-cells treated with 4-F-GlcNAc, lectin blotting experiments were performed with ConA (Specificity: α-mannose), WGA (Specificity: terminal GlcNAc or GlcNAcβ1,4GlcNAc) and LEA (Specificity: {Galβ1,4GlcNAc}n).

[6] = tested on: HECA-452 epitopes on PSGL-1; assay: Western blot of HECA-452 epitopes on PSGL-1 of CLA+ T-cells; assay type: cell-based, human
Description: For analysis of CLA expression on T-cells treated with glycoconjugate modifiers, CLA^+ T-cells were first pretreated with neuraminidase (0.1 U/ml at 37° C. for 1 h) to eliminate functional CLA and cleave all HECA-452 reactive epitopes from the cell surface (35–38). Since we wanted to investigate whether these compounds directly affected CLA expression and function, neuraminidase pretreatment followed by incubations with glycosylation modifiers allowed for examination of de novo synthesized CLA/HECA-452 epitopes re-expressed on the cell surface. After neuraminidase digestion, cells were then incubated with tunicamycin (0.02 mM) (an inhibitor of GlcNAc phosphotransferase, the initial step of N-glycosylation), swainsonine (0.23 mM) (an inhibitor of α-mannosidase II and complex-type N-glycosylation), 4-F-GlcNAc (0.05 mM) (putative inhibitor of poly-N-acetyllactosamine biosynthesis), BAG (an inhibitor of O-glycan biosynthesis) (<2 mM) or GlcNAc (5 mM) (negative control, naturally-occurring metabolic counterpart of 4-F-GlcNAc)for 30 h in the presence of human recombinant IL-2. […] Concentrations for BAG were selected based on maximal O-glycosylation inhibitory effects at non-growth inhibitory concentrations as previously reported (39). To determine a suitable concentration of 4-F-GlcNAc for examining glycoconjugate-modifying effects without influencing cell growth or protein synthesis, we performed preliminary growth inhibitory experiments of cells incubated with 4-F-GlcNAc for 2 cell doublings (˜36 h) at 37° C. (cell viability assessed by Trypan-blue exclusion).
For lysate preparation, cells (including radiolabeled cells) were washed 3× in ice cold PBS and lysed in buffer containing 150 mM NaCl, 50 mM Tris-HCl pH 7.4, 1 mM EDTA, 0.02% NaAzide, 20 μg/ml PMSF, Complete™ protease inhibitors cocktail tablets (Roche Molecular Biochemicals) and 2% NP-40 (250 μl/10^8 cells). Following 2 h incubation on ice, insoluble cellular debris was pelleted by centrifugation for 30 min at 10,000×g at 4° C. and solubilized protein lysate was collected and quantified by Bradford protein assay (Sigma Chemical). SDS was added to a final concentration of 1% in lysate preparations utilized for immunoprecipitation experiments.
For SDS-PAGE and Western blotting, cell lysates, membrane proteins or immunoprecipitates were diluted and boiled in reducing sample buffer, and separated on 7–9% SDS-PAGE gels. Resolved protein was transferred to Sequi-blot™ PVDF membrane (Bio-Rad, Inc., Hercules, Calif.) and blocked with FBS for 1 hr at RT. Blots were incubated with rat IgM anti-human CLA HECA-452 (1 μg/ml), mouse IgG anti-human PSGL-1 moAbs PL-2 (1 μg/ml), 203, 4F9 and 4D8 (1 μg each/ml), or mouse IgG anti-human CD43 L60 (1 μg/ml) for 1 hr at RT. Isotype control immunoblots using either rat IgM or mouse IgG were performed in parallel to evaluate non-specific reactive proteins. After three washes with PBS/0.1%Tween-20 (10 min/wash), blots were incubated with the respective secondary Ab, AP-conjugated goat anti-rat IgM (1:400) or goat anti-mouse IgG (1:8000). AP substrate, Western Blue® (Promega, Madison, Wis.) was then added to develop blots.
Cells were then re-cultured in the presence of glycosylation inhibitor, diluent control (PBS) or molecular control (GlcNAc) for 30 hr and then harvested for CLA expression and functional analysis. […] To assess the duration of anti-carbohydrate effects on HECA-452 expression on PSGL-1, cells treated with 4-F-GlcNAc for 30 h and were then re-cultured in non-4-F-GlcNAc-containing medium for 72 h.

[7] = tested on: P-selectin ligand activity of CLA+ T-lymphocytes; assay: Parallel-plate flow chamber, CLA+ T-cell tethering and rolling on P-selectin chimera; assay type: cell-based, human
Description: as §1, §2, §3, §4

[8] = tested on: L-selectin ligand activity of human CLA+ T-cells; assay: Parallel-plate flow chamber, CLA+ T-cell rolling on L-selectin chimera; assay type: cell-based
Description: as §2, §3, §4

[9] = tested on: α-mannose (ConA staining); assay type: cell-based, human; settings: compared with PBS or GlcNAc treatments
Description: as §5, §6

SMILES | IC50 values, growth of tumor cell lines and normal endothelial cells [1] | incorporation of radiolabeled sugar precursors [2] | dose limiting toxicity [3] | rolling adhesions on E-selectin chimera [4] | LEA staining of lysates [5] | de novo synthesized HECA-452 epitopes on PSGL-1 (Western blot) [6] | effects on HECA-452 expression ([6]; concentrations below 1.0 mM, preliminary, data not shown) | rolling adhesions on P-selectin chimera [7] | rolling adhesions on L-selectin chimera [8] | ConA staining of lysates [9]
CC(=O)N[C@H]1C(OC(C)=O)O[C@H](COC(C)=O)[C@@H](OC(C)=O)[C@@H]1F (stereo partly drawn) [3-F-GlcNAc, 2-acetamido-2-deoxy-1,4,6-tri-O-acetyl-3-deoxy-3-fluoro-D-glucopyranose] | identical to those that were previously described | conspicuous reductions | ~250 mg/kg×6 days |  |  |  |  |  |  | 
CC(=O)N[C@H]1C(OCc2ccccc2)O[C@H](CO)[C@H](O)[C@@H]1O (stereo partly shown) [BAG, benzyl-O-N-acetylgalactosamide] |  |  |  | significant reductions | did not affect | marked reduction | minimal effects | significant reductions | significant reductions | no effect

From patent publication US7098195B2, “Fluorinated glucosamine analogs useful for modulating post-translational glycosylations on cells” (Health Research, Inc., priority 2001, dated 2006)
